Each molecule was assayed on LXF-289 cell line (assay: cells). Settings: Homo sapiens, LXF-289.
Format: functional, cell-based, Homo sapiens
Description: SANGER: Inhibition of human LXF-289 cell growth in a cell viability assay.
For `COc1cccc2c1C(=O)c1c(O)c3c(c(O)c1C2=O)C[C@@](O)(C(=O)CO)C[C@@H]3O[C@H]1C[C@H](N)[C@H](O)[C@H](C)O1` [DOXORUBICIN], the IC50 was 109 nM.

What follows are molecules tested on MHH-PREB-1 (assay: cells). Settings: Homo sapiens, MHH-PREB-1.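 Note: cell viability assay measuring inhibition of proliferation of human MHH-PREB-1 cells.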
Format: functional, cell-based, Homo sapiens
Description: SANGER: Inhibition of human MHH-PREB-1 cell growth in a cell viability assay.
`COc1cccc2c1C(=O)c1c(O)c3c(c(O)c1C2=O)C[C@@](O)(C(=O)CO)C[C@@H]3O[C@H]1C[C@H](N)[C@H](O)[C@H](C)O1` [DOXORUBICIN] was tested, and the IC50 was 230 nM.

These molecules were tested on 697 (assay: cells). Settings: Homo sapiens.
Format: functional, cell-based, Homo sapiens
Description: SANGER: Inhibition of human 697 cell growth in a cell viability assay.
With `COc1cccc2c1C(=O)c1c(O)c3c(c(O)c1C2=O)C[C@@](O)(C(=O)CO)C[C@@H]3O[C@H]1C[C@H](N)[C@H](O)[C@H](C)O1` [DOXORUBICIN] the IC50 was 19.1 nM.

What follows are molecules tested on TE-8 (assay: cells). Settings: Homo sapiens, TE-8.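 Note: growth inhibition of TE-8 cells, measured with a cell viability readout.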
Format: functional, cell-based, Homo sapiens
Description: SANGER: Inhibition of human TE-8 cell growth in a cell viability assay.
`COc1cccc2c1C(=O)c1c(O)c3c(c(O)c1C2=O)C[C@@](O)(C(=O)CO)C[C@@H]3O[C@H]1C[C@H](N)[C@H](O)[C@H](C)O1` [DOXORUBICIN] showed an IC50 of 7.5 nM.

What follows are molecules tested on U-266 (assay: cells). Settings: Homo sapiens, U-266.
Format: functional, cell-based, Homo sapiens
Description: SANGER: Inhibition of human U-266 cell growth in a cell viability assay.
Molecule `COc1cccc2c1C(=O)c1c(O)c3c(c(O)c1C2=O)C[C@@](O)(C(=O)CO)C[C@@H]3O[C@H]1C[C@H](N)[C@H](O)[C@H](C)O1` [DOXORUBICIN] has an IC50 of 451 nM.

Each molecule was assayed on NCI-H1648 (assay: cells). Settings: Homo sapiens, NCI-H1648.
Format: functional, cell-based, Homo sapiens
Description: SANGER: Inhibition of human NCI-H1648 cell growth in a cell viability assay.
`COc1cccc2c1C(=O)c1c(O)c3c(c(O)c1C2=O)C[C@@](O)(C(=O)CO)C[C@@H]3O[C@H]1C[C@H](N)[C@H](O)[C@H](C)O1` [DOXORUBICIN] showed an IC50 of 132 nM.

What follows are molecules tested on KMOE-2 (assay: cells). Settings: Homo sapiens, KMOE-2.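 Note: growth inhibition of human KMOE-2 cells, read out with a cell viability assay.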
Format: functional, cell-based, Homo sapiens
Description: SANGER: Inhibition of human KMOE-2 cell growth in a cell viability assay.
In the case of `COc1cccc2c1C(=O)c1c(O)c3c(c(O)c1C2=O)C[C@@](O)(C(=O)CO)C[C@@H]3O[C@H]1C[C@H](N)[C@H](O)[C@H](C)O1` [DOXORUBICIN], the IC50 is reported as 576 nM.

What follows are molecules tested on HDLM-2 (assay: cells). Settings: Homo sapiens, HDLM-2.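 Note: cell viability assay measuring suppression of HDLM-2 proliferation.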
Format: functional, cell-based, Homo sapiens
Description: SANGER: Inhibition of human HDLM-2 cell growth in a cell viability assay.
Molecule `COc1cccc2c1C(=O)c1c(O)c3c(c(O)c1C2=O)C[C@@](O)(C(=O)CO)C[C@@H]3O[C@H]1C[C@H](N)[C@H](O)[C@H](C)O1` [DOXORUBICIN] has an IC50 of 569 nM.

These molecules were tested on TGBC1TKB (assay: cells). Settings: Homo sapiens, TGBC1TKB.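 Note: growth inhibition of TGBC1TKB cells, read out by a cell viability assay.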
Format: functional, cell-based, Homo sapiens
Description: SANGER: Inhibition of human TGBC1TKB cell growth in a cell viability assay.
`COc1cccc2c1C(=O)c1c(O)c3c(c(O)c1C2=O)C[C@@](O)(C(=O)CO)C[C@@H]3O[C@H]1C[C@H](N)[C@H](O)[C@H](C)O1` [DOXORUBICIN] showed an IC50 of over 1020 nM.

Each molecule was assayed on SK-UT-1 (assay: cells). Settings: Homo sapiens, SK-UT-1.
Format: functional, cell-based, Homo sapiens
Description: SANGER: Inhibition of human SK-UT-1 cell growth in a cell viability assay.
Molecule `COc1cccc2c1C(=O)c1c(O)c3c(c(O)c1C2=O)C[C@@](O)(C(=O)CO)C[C@@H]3O[C@H]1C[C@H](N)[C@H](O)[C@H](C)O1` [DOXORUBICIN] has an IC50 of 20 nM.

The molecules below were run on ML-2 (assay: cells). Settings: Homo sapiens, ML-2.
Format: functional, cell-based, Homo sapiens
Description: SANGER: Inhibition of human ML-2 cell growth in a cell viability assay.
In the case of `COc1cccc2c1C(=O)c1c(O)c3c(c(O)c1C2=O)C[C@@](O)(C(=O)CO)C[C@@H]3O[C@H]1C[C@H](N)[C@H](O)[C@H](C)O1` [DOXORUBICIN], the IC50 is reported as 135 nM.

These molecules were tested on KNS-81-FD (assay: cells). Settings: Homo sapiens, KNS-81-FD.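 Note: growth inhibition of KNS-81-FD cells, read out with a cell viability assay.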
Format: functional, cell-based, Homo sapiens
Description: SANGER: Inhibition of human KNS-81-FD cell growth in a cell viability assay.
Work on `COc1cccc2c1C(=O)c1c(O)c3c(c(O)c1C2=O)C[C@@](O)(C(=O)CO)C[C@@H]3O[C@H]1C[C@H](N)[C@H](O)[C@H](C)O1` [DOXORUBICIN] yielded an IC50 of 160 nM.

These molecules were tested on COLO-668 (assay: cells). Settings: Homo sapiens, COLO-668.
Format: functional, cell-based, Homo sapiens
Description: SANGER: Inhibition of human COLO-668 cell growth in a cell viability assay.
For `COc1cccc2c1C(=O)c1c(O)c3c(c(O)c1C2=O)C[C@@](O)(C(=O)CO)C[C@@H]3O[C@H]1C[C@H](N)[C@H](O)[C@H](C)O1` [DOXORUBICIN], the IC50 was 84.5 nM.

These molecules were tested on SW872 (assay: cells). Settings: Homo sapiens, SW872.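 Note: growth inhibition of SW872 cells, read out by a viability assay.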
Format: functional, cell-based, Homo sapiens
Description: SANGER: Inhibition of human SW872 cell growth in a cell viability assay.
In the case of `COc1cccc2c1C(=O)c1c(O)c3c(c(O)c1C2=O)C[C@@](O)(C(=O)CO)C[C@@H]3O[C@H]1C[C@H](N)[C@H](O)[C@H](C)O1` [DOXORUBICIN], the IC50 is reported as 121 nM.

What follows are molecules tested on SNB-75 (assay: cells). Settings: Homo sapiens, SNB-75.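 Note: cell viability assay measuring growth inhibition of human SNB-75 cells.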
Format: functional, cell-based, Homo sapiens
Description: SANGER: Inhibition of human SNB75 cell growth in a cell viability assay.
`COc1cccc2c1C(=O)c1c(O)c3c(c(O)c1C2=O)C[C@@](O)(C(=O)CO)C[C@@H]3O[C@H]1C[C@H](N)[C@H](O)[C@H](C)O1` [DOXORUBICIN] was tested, and the IC50 was 149 nM.

The molecules below were run on LS-123 (assay: cells). Settings: Homo sapiens, LS-123.
Format: functional, cell-based, Homo sapiens
Description: SANGER: Inhibition of human LS-123 cell growth in a cell viability assay.
Work on `COc1cccc2c1C(=O)c1c(O)c3c(c(O)c1C2=O)C[C@@](O)(C(=O)CO)C[C@@H]3O[C@H]1C[C@H](N)[C@H](O)[C@H](C)O1` [DOXORUBICIN] yielded an IC50 of 18.5 nM.

These molecules were tested on COLO-684 (assay: cells). Settings: Homo sapiens, COLO-684.
Format: functional, cell-based, Homo sapiens
Description: SANGER: Inhibition of human COLO-684 cell growth in a cell viability assay.
Molecule `COc1cccc2c1C(=O)c1c(O)c3c(c(O)c1C2=O)C[C@@](O)(C(=O)CO)C[C@@H]3O[C@H]1C[C@H](N)[C@H](O)[C@H](C)O1` [DOXORUBICIN] has an IC50 of 220 nM.

These molecules were tested on ES1 (assay: cells). Settings: Homo sapiens, ES1.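 Note: growth inhibition of ES1 cells, read out with a cell viability assay.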
Format: functional, cell-based, Homo sapiens
Description: SANGER: Inhibition of human ES1 cell growth in a cell viability assay.
`COc1cccc2c1C(=O)c1c(O)c3c(c(O)c1C2=O)C[C@@](O)(C(=O)CO)C[C@@H]3O[C@H]1C[C@H](N)[C@H](O)[C@H](C)O1` [DOXORUBICIN] showed an IC50 of 13.7 nM.

These molecules were tested on ES7 (assay: cells). Settings: Homo sapiens, ES7.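 Note: growth inhibition of cultured human ES7 cells, read out as cell viability.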
Format: functional, cell-based, Homo sapiens
Description: SANGER: Inhibition of human ES7 cell growth in a cell viability assay.
`COc1cccc2c1C(=O)c1c(O)c3c(c(O)c1C2=O)C[C@@](O)(C(=O)CO)C[C@@H]3O[C@H]1C[C@H](N)[C@H](O)[C@H](C)O1` [DOXORUBICIN] was tested, and the IC50 was 51.4 nM.

Each molecule was assayed on COLO-829 (assay: cells). Settings: Homo sapiens, COLO-829.
Format: functional, cell-based, Homo sapiens
Description: SANGER: Inhibition of human COLO-829 cell growth in a cell viability assay.
With `COc1cccc2c1C(=O)c1c(O)c3c(c(O)c1C2=O)C[C@@](O)(C(=O)CO)C[C@@H]3O[C@H]1C[C@H](N)[C@H](O)[C@H](C)O1` [DOXORUBICIN] the IC50 was over 1020 nM.

What follows are molecules tested on LAN-6 (assay: cells). Settings: Homo sapiens, LAN-6.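 Note: growth inhibition of LAN-6 cells, determined with a cell viability assay.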
Format: functional, cell-based, Homo sapiens
Description: SANGER: Inhibition of human LAN-6 cell growth in a cell viability assay.
For `COc1cccc2c1C(=O)c1c(O)c3c(c(O)c1C2=O)C[C@@](O)(C(=O)CO)C[C@@H]3O[C@H]1C[C@H](N)[C@H](O)[C@H](C)O1` [DOXORUBICIN], the IC50 was 315 nM.

These molecules were tested on SW982 (assay: cells). Settings: Homo sapiens, SW982.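 Note: growth inhibition of SW982 cells, read out with a cell viability assay.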
Format: functional, cell-based, Homo sapiens
Description: SANGER: Inhibition of human SW982 cell growth in a cell viability assay.
`COc1cccc2c1C(=O)c1c(O)c3c(c(O)c1C2=O)C[C@@](O)(C(=O)CO)C[C@@H]3O[C@H]1C[C@H](N)[C@H](O)[C@H](C)O1` [DOXORUBICIN] was tested, and the IC50 was 6.05 nM.

These molecules were tested on GT3TKB (assay: cells). Settings: Homo sapiens, GT3TKB.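 Note: growth inhibition of the cell line, read out with a cell viability assay.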
Format: functional, cell-based, Homo sapiens
Description: SANGER: Inhibition of human GT3TKB cell growth in a cell viability assay.
`COc1cccc2c1C(=O)c1c(O)c3c(c(O)c1C2=O)C[C@@](O)(C(=O)CO)C[C@@H]3O[C@H]1C[C@H](N)[C@H](O)[C@H](C)O1` [DOXORUBICIN] gave an IC50 of 67.2 nM.

What follows are molecules tested on CCRF-CEM (assay: cells). Settings: Homo sapiens, CCRF-CEM.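 Note: inhibition of CCRF-CEM cell growth, measured by a cell viability assay.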
Format: functional, cell-based, Homo sapiens
Description: SANGER: Inhibition of human CCRF-CEM cell growth in a cell viability assay.
`COc1cccc2c1C(=O)c1c(O)c3c(c(O)c1C2=O)C[C@@](O)(C(=O)CO)C[C@@H]3O[C@H]1C[C@H](N)[C@H](O)[C@H](C)O1` [DOXORUBICIN] showed an IC50 of 24.5 nM.

From ChEMBL document CHEMBL1201861, “Genomics of Drug Sensitity in Cancer screening data, Wellcome Trust Sanger Institute”
